“And” between values parts separate entries of the source, which are not always exact repeats. Equal entries are not always repeated. Toxic doses and inconclusive results are not listed.

For this assay, the system named is BDF1 mice, P388 leukemia ip, median survival T/C. Briefly: NCI In Vivo Anticancer Drug Screen. Data for tumor model P388 Leukemia (intraperitoneal) in B6D2F1 (BDF1) mice. The following applies: endpoint: median survival time, higher = longer survival. In short, it runs like this: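 Antitumour effect was judged in vivo: survival in drug-treated mice, normalised to that of vehicle-dosed controls, gives the reported T/C.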

The mark [1] stands for this setting: dose: 75.0 mg/kg/injection, schedule: Q01DX009 (ip), vehicle: saline.
Setting [2] is: dose: 200.0 mg/kg/injection, schedule: Q04DX003 (ip), vehicle: saline.
Where [3] appears, read: dose: 100.0 mg/kg/injection, schedule: Q01DX009 (ip), vehicle: Klucel (hydroxypropylcellulose) (HPC).
Setting [4] is: dose: 100.0 mg/kg/injection, schedule: Q04DX003 (ip), vehicle: Klucel (hydroxypropylcellulose) (HPC).
[5] abbreviates: dose: 200.0 mg/kg/injection, schedule: Q01DX009 (ip), vehicle: Klucel (hydroxypropylcellulose) (HPC).
Where [6] appears, read: dose: 200.0 mg/kg/injection, schedule: Q04DX003 (ip), vehicle: Klucel (hydroxypropylcellulose) (HPC).
[7] abbreviates: dose: 400.0 mg/kg/injection, schedule: Q01DX009 (ip), vehicle: Klucel (hydroxypropylcellulose) (HPC).
The mark [8] stands for this setting: dose: 400.0 mg/kg/injection, schedule: Q04DX003 (ip), vehicle: Klucel (hydroxypropylcellulose) (HPC).
The mark [9] stands for this setting: dose: 100.0 mg/kg/injection, schedule: Q04DX003 (ip), vehicle: saline with Tween-80.
The mark [10] stands for this setting: dose: 200.0 mg/kg/injection, schedule: Q04DX003 (ip), vehicle: saline with Tween-80.
Setting [11] is: dose: 400.0 mg/kg/injection, schedule: Q04DX003 (ip), vehicle: saline with Tween-80.
The mark [12] stands for this setting: dose: 100.0 mg/kg/injection, schedule: Q04DX003 (ip), vehicle: saline.
Setting [13] is: dose: 400.0 mg/kg/injection, schedule: Q04DX003 (ip), vehicle: saline.
Where [14] appears, read: dose: 25.0 mg/kg/injection, schedule: Q01DX009 (ip), vehicle: saline with Tween-80.
Where [15] appears, read: dose: 50.0 mg/kg/injection, schedule: Q01DX009 (ip), vehicle: saline with Tween-80.
Setting [16] is: dose: 100.0 mg/kg/injection, schedule: Q01DX009 (ip), vehicle: saline with Tween-80.
[17] abbreviates: dose: 12.5 mg/kg/injection, schedule: Q01DX009 (ip), vehicle: saline with Tween-80.

Turning to `CCN(CC)CCNc1ccc(CO)c2sc3ccccc3c(=O)c12`, the T/C is, setting by setting: (dose: 17.3 mg/kg/injection, schedule: Q01DX009 (ip), vehicle: water) 108 % of control; (dose: 18.75 mg/kg/injection, schedule: Q01DX009 (ip), vehicle: saline) 104 % of control; (dose: 21.6 mg/kg/injection, schedule: Q01DX009 (ip), vehicle: water) 119 % of control; (dose: 28.8 mg/kg/injection, schedule: Q01DX009 (ip), vehicle: water) 122 % of control; (dose: 42.0 mg/kg/injection, schedule: Q01DX009 (ip), vehicle: water) 150 % of control; (dose: 48.0 mg/kg/injection, schedule: Q01DX009 (ip), vehicle: water) 170 % of control. For the same compound, the T/C reads like this: (dose: 60.0 mg/kg/injection, schedule: Q01DX009 (ip), vehicle: water) 160 % of control; (dose: 70.0 mg/kg/injection, schedule: Q01DX009 (ip), vehicle: water) 122 % of control; under setting [1], 116 % of control; (dose: 80.0 mg/kg/injection, schedule: Q01DX009 (ip), vehicle: water) 188 % of control; (dose: 88.0 mg/kg/injection, schedule: Q04DX003 (ip), vehicle: saline) 109 % of control; (dose: 100.0 mg/kg/injection, schedule: Q01DX009 (ip), vehicle: water) 113 % of control. Further, the T/C by setting is: (dose: 117.0 mg/kg/injection, schedule: Q01DX009 (ip), vehicle: water) 97 % of control; (dose: 132.0 mg/kg/injection, schedule: Q04DX003 (ip), vehicle: saline) 109 % of control; under setting [2], 122 % of control; (dose: 300.0 mg/kg/injection, schedule: Q04DX003 (ip), vehicle: saline) 163 % of control.

`N#CCC(=O)N1Cc2cc3ccccc3nc2C1`: the T/C is, setting by setting: (dose: 50.0 mg/kg/injection, schedule: Q01DX001 (ip), vehicle: saline sonified) 100 % of control; (dose: 100.0 mg/kg/injection, schedule: Q01DX001 (ip), vehicle: saline sonified) 100 % of control; (dose: 200.0 mg/kg/injection, schedule: Q01DX001 (ip), vehicle: saline sonified) 100 % of control.

For the compound `NC(=S)N/N=C/C=C/c1ccccc1`, the T/C (dose: 100.0 mg/kg/injection, schedule: Q04DX002 (ip), vehicle: Klucel (hydroxypropylcellulose) (HPC)) is 96 % of control.

Regarding `O=C(Cc1ccccc1)OCC#CC#CCOC(=O)Cc1ccccc1`, the T/C is, setting by setting: under setting [3], 100 % of control; under setting [4], 90 % of control; under setting [5], 104 % of control; under setting [6], 104 % of control; under setting [7], 100 % of control; under setting [8], 109 % of control.

With `Cc1ccc2c(=O)n3cccc3c(=O)[nH]c2c1O`, the T/C under setting [9] is 103 % of control, the T/C under setting [10] was 100 % of control and the T/C under setting [11] was 96 % of control.

In the case of `O=C(OCCBr)c1ccccc1[N+](=O)[O-]`, the T/C is 100 % of control under setting [12], 104 % of control under setting [2] and 109 % of control under setting [13].

Consider `N#Cc1cc([N+](=O)[O-])ccc1Cl`, for which the T/C under setting [14] is 90 % of control, the T/C under setting [15] was 105 % of control and the T/C under setting [16] is 105 % of control.

For `Cc1cc2nc3c(=O)[nH]c(=O)nc-3n(CC(O)C(O)C(O)CO)c2cc1C` (stereo not given), the T/C under setting [17] is 102 % of control, the T/C under setting [14] was 94 % of control and the T/C under setting [15] is 107 % of control.

Turning to `CCC(=O)O[C@H]1CC[C@H]2[C@@H]3CC[C@H]4CC(=O)[C@H](C)C[C@]4(C)[C@H]3CC[C@]12C`, the T/C is 87 % of control under setting [3]; 104 % of control under setting [4]; 95 % of control under setting [5]; 100 % of control under setting [6]; 87 % of control under setting [7]; 104 % of control under setting [8].

Take `CNC(C)(C)C(SS)c1ccc(Cl)cc1` (stereo not given): the T/C is 110 % of control (dose: 6.25 mg/kg/injection, schedule: Q01DX009 (ip), vehicle: saline with Tween-80); 118 % of control under setting [17]; 105 % of control and 121 % of control under setting [14]; 101 % of control (dose: 25.0 mg/kg/injection, schedule: Q04DX003 (ip), vehicle: saline with Tween-80); 96 % of control and 110 % of control under setting [15]; 99 % of control (dose: 50.0 mg/kg/injection, schedule: Q04DX003 (ip), vehicle: saline with Tween-80).

Turning to `COC(=O)CCC(=O)CCC(C)C`, the T/C is, setting by setting: under setting [14], 107 % of control; under setting [15], 103 % of control; under setting [16], 92 % of control; under setting [9], 111 % of control; (dose: 200.0 mg/kg/injection, schedule: Q01DX009 (ip), vehicle: saline with Tween-80) 103 % of control; under setting [10], 122 % of control. The T/C runs as follows: (dose: 400.0 mg/kg/injection, schedule: Q01DX009 (ip), vehicle: saline with Tween-80) 92 % of control; under setting [11], 116 % of control.

Consider `O=C(O)C1OC1C(=O)O` (stereo not given), for which the T/C is 90 % of control under setting [1]; 100 % of control (dose: 150.0 mg/kg/injection, schedule: Q01DX009 (ip), vehicle: saline); 100 % of control (dose: 300.0 mg/kg/injection, schedule: Q01DX009 (ip), vehicle: saline).

As to `COC(OC)c1nc(N)[nH]c(=O)c1Cc1ccc(Br)cc1`, the T/C runs as follows: under setting [9], 95 % of control; under setting [10], 104 % of control; under setting [11], 100 % of control.

Regarding `O=C(/C=C/c1cccc([N+](=O)[O-])c1)NCCBr`, the T/C by setting is: under setting [12], 90 % of control; under setting [2], 100 % of control; under setting [13], 100 % of control.

For the compound `O=C(NC(Cc1ccccc1)C(=O)CCl)OCc1ccccc1` (stereo not given), the T/C is, setting by setting: (dose: 4.4 mg/kg/injection, schedule: Q01DX009 (ip), vehicle: saline with Tween-80) 112 % of control; (dose: 6.6 mg/kg/injection, schedule: Q01DX009 (ip), vehicle: saline with Tween-80) 120 % of control; (dose: 15.0 mg/kg/injection, schedule: Q01DX009 (ip), vehicle: saline with Tween-80) 112 % of control; under setting [14], 105 % of control and 113 % of control; (dose: 37.5 mg/kg/injection, schedule: Q01DX009 (ip), vehicle: saline with Tween-80) 86 % of control.

`COc1ccc2cc1Oc1ccc(cc1)CC1=NCCc3cc(OC)c(OC)c(c31)Oc1cc3c(cc1OC)CCN(C)C3C2` (stereo not given): the T/C is 86 % of control (dose: 67.0 mg/kg/injection, schedule: Q01DX010 (ip), vehicle: carboxymethylcellulose (CMC)) and 86 % of control (dose: 100.0 mg/kg/injection, schedule: Q01DX010 (ip), vehicle: carboxymethylcellulose (CMC)).

In the case of `C=C1C(O)C2(O)OCC34C(CC5C(C)=CC(=O)C(OC)C5(C)C23)OC(=O)C(OC(=O)C(C)CC)C14` (stereo not given), the T/C was 98 % of control (dose: 0.06 mg/kg/injection, schedule: Q01DX009 (ip), vehicle: saline with Tween-80); 112 % of control (dose: 0.12 mg/kg/injection, schedule: Q01DX009 (ip), vehicle: saline with Tween-80); 105 % of control (dose: 0.25 mg/kg/injection, schedule: Q01DX009 (ip), vehicle: saline with Tween-80); 110 % of control (dose: 0.5 mg/kg/injection, schedule: Q01DX009 (ip), vehicle: saline with Tween-80); 120 % of control (dose: 1.0 mg/kg/injection, schedule: Q01DX009 (ip), vehicle: saline with Tween-80); 115 % of control (dose: 2.0 mg/kg/injection, schedule: Q01DX009 (ip), vehicle: saline with Tween-80).

Values taken from PubChem BioAssay AID328 (DTP/NCI, 2004).
